Test results reported in ChEMBL document CHEMBL1201862, “PubChem BioAssay data set” (2004).
One block for each molecule: values may come before it. The source made the active and inactive calls.

Tests used:
[1] = target: Cytochrome P450 2D6 (Homo sapiens, UniProt P10635);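 also: CYP2D6 member of a cytochrome P450 panel assay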
[2] = target: T1, Coagulation factor XII (Homo sapiens, UniProt P00748); type: functional;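 also: activated factor XIIa alpha cleaving a fluorogenic AMC peptide substrate; inhibitor potency from loss of enzyme activity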
T1 sequence (P00748 whole entry): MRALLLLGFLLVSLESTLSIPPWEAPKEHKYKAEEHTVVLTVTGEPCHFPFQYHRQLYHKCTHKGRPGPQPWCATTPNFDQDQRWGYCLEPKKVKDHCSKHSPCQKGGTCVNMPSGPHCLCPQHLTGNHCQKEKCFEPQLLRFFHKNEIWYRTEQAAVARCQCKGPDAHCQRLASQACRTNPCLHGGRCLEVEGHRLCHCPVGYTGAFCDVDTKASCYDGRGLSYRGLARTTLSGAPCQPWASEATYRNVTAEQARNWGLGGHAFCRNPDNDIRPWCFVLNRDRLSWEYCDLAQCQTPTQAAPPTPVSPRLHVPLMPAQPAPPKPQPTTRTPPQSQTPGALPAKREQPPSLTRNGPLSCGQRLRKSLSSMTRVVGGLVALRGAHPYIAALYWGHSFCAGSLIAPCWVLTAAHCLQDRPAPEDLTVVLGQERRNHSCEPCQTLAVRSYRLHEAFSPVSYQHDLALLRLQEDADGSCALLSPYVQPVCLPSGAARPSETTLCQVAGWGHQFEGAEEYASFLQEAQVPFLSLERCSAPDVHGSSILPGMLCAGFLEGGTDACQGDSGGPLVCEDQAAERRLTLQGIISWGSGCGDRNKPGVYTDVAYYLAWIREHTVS

[3] = tested on: CHO-K1; assay: (§1) Counterscreen for antagonists of the orexin 1 receptor (OX1R; HCRTR1): Homogeneous time resolved fluorescence (HTRF)-based cell-based dose response assay to identify antagonists of the parental CHO-K1 cell line. [Related pubchem assays (depositor defined):AID434989, AID435008, AID463079, AID485270, AID492963, AID492964, AID492965, AID493232, AID504699, AID504701]; type: functional; details: Cricetulus griseus
[4] = as §1, with “Fluorescence-based” for “Homogeneous time resolved fluorescence (HTRF)-based”, “cell-based high throughput” for “cell-based”, “CHO” for “CHO-K1”; type: functional
[5] = target: T2, Orexin/Hypocretin receptor type 1 (Homo sapiens, UniProt O43613); assay: Homogeneous Time Resolved Fluorescence (HTRF)-based cell-based high throughput dose response assay for antagonists of the orexin 1 receptor (OX1R; HCRTR1). [Related pubchem assays (depositor defined):AID434989, AID435008, AID463079, AID485270, AID492963, AID492964, AID492965, AID493232, AID504717, AID504718]; type: functional
T2 sequence (O43613 whole entry): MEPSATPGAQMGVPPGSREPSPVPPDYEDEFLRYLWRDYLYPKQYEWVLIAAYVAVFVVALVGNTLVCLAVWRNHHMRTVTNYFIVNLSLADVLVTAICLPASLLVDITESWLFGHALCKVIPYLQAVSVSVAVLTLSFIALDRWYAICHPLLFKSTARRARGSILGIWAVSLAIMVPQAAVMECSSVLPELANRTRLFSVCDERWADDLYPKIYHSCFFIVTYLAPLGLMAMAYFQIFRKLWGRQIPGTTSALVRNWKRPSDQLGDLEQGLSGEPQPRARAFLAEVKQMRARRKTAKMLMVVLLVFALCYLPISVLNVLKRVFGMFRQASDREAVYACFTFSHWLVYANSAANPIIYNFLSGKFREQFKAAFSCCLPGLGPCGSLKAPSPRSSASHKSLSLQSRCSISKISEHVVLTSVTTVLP

[6] = target: T2, Orexin/Hypocretin receptor type 1; assay: Fluorescence-based cell-based high throughput dose response assay for antagonists of the orexin 1 receptor (OX1R; HCRTR1). [Related pubchem assays (depositor defined):AID434989, AID435008, AID463079, AID485270, AID492963, AID492964, AID492965, AID493232, AID504717, AID504718]; type: functional
[7] = target: T3, Calpain-2 catalytic subunit (Sus scrofa, UniProt P43367); assay: m-calpain protease blockers, concentration series – biochemical, fluorogenic peptide substrate, dose response (AID 1420); type: functional
T3 sequence (P43367 whole entry): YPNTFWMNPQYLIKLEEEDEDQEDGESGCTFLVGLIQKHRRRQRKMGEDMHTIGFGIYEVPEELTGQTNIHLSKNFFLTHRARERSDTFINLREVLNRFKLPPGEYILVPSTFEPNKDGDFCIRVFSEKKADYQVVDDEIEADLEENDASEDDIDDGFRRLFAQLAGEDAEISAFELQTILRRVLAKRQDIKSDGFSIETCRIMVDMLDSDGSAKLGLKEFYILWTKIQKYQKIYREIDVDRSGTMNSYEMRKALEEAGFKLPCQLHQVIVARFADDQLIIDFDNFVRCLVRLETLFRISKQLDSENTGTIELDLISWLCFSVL

[8] = target: SUMO-activating enzyme (Homo sapiens, UniProt Q9UBT2); assay: blockers of UBC9-mediated SUMO conjugation – biochemical, AlphaScreen, SUMOylation inhibitor project, confirmation (AID 2018); type: functional
Sequence of SUMO-activating enzyme (Q9UBE0 whole entry): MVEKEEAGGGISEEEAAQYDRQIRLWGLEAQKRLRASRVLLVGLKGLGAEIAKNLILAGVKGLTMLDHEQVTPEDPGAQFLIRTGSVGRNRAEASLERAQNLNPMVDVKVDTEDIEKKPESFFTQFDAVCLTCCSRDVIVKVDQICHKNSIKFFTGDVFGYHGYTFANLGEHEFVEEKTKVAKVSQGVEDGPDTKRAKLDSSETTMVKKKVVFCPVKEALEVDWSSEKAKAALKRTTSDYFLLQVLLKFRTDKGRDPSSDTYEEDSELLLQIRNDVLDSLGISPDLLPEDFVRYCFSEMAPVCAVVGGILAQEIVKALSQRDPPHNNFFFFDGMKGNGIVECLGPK
Sequence of SUMO-activating enzyme (Q9UBT2 whole entry): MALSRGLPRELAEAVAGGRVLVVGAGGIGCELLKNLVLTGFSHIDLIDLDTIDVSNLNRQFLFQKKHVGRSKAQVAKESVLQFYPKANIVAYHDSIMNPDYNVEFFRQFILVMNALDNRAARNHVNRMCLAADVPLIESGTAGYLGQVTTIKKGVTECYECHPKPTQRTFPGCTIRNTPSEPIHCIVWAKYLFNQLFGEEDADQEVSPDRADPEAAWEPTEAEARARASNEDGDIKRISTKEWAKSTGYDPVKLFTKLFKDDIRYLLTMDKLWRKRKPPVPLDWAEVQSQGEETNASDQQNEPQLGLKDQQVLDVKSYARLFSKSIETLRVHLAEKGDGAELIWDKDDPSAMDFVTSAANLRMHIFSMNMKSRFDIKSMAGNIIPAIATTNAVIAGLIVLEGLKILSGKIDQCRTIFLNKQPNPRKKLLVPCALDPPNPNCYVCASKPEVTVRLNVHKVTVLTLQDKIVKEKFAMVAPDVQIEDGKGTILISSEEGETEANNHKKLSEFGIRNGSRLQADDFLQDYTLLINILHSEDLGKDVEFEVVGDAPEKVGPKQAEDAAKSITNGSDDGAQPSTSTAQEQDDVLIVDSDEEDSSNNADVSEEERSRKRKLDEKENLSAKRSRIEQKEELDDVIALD

[9] = target: T4, Kappa-type opioid receptor (Homo sapiens, UniProt P41145); type: functional
T4 sequence (P41145 whole entry): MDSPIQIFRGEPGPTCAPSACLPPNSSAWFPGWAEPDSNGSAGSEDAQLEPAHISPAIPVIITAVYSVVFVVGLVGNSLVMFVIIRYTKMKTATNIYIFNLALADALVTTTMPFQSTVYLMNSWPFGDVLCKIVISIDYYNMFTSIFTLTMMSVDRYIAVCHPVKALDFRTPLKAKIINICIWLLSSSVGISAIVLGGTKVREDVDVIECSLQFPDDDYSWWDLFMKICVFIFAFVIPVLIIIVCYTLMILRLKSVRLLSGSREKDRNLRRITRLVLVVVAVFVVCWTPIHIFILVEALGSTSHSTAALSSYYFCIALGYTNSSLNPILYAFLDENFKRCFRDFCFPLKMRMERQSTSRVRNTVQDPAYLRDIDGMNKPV

[10] = target: T5, Beta-galactosidase (Escherichia coli, UniProt Q8VNN2); type: functional
T5 sequence (Q8VNN2 whole entry): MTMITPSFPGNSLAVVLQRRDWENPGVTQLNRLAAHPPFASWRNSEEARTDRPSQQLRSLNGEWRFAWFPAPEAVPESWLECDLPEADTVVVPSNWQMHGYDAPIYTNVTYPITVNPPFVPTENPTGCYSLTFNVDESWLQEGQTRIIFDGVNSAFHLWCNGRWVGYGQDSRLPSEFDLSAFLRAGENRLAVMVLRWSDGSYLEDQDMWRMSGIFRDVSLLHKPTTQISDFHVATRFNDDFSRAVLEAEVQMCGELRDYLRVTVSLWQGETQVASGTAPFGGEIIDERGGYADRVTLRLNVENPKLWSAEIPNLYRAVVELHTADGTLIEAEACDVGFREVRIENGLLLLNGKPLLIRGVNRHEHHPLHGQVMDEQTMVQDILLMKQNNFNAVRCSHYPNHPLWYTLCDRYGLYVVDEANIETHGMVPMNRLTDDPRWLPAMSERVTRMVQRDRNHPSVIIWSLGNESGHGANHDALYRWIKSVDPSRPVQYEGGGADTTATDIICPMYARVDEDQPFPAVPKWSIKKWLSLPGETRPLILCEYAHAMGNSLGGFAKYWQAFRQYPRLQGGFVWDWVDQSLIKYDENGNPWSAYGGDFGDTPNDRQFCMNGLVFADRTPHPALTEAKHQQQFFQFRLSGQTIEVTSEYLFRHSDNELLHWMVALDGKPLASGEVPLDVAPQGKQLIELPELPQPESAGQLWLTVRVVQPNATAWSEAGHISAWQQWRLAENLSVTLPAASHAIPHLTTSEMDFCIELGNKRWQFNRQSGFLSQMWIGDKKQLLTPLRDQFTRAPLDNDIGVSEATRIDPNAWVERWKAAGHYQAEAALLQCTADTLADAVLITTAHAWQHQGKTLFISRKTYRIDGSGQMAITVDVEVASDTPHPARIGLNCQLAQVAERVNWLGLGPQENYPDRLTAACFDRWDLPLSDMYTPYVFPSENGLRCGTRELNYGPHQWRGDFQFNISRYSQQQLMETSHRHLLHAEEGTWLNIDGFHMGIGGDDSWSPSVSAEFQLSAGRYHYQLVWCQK

[11] = tested on: Streptococcus sp. 'group A'; assay: Streptococcus pyogenes SK(-)GAS viability under kanamycin – luminescence, BacTiterGlo, confirmation, counter-screen for streptokinase expression inhibitor project, dose response (AID 1900); type: functional, organism-based
[12] = target: T4, Kappa-type opioid receptor; type: functional; remark: listed apart in the source
[13] = tested on: Streptococcus; assay: GAS UMAA2166 growth inhibition – luminescence, BacTiterGlo, counter-screen for streptokinase expression inhibitor project, dose response (AID 1915); type: functional, organism-based;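 also: potency for reduction of bacterial viability or growth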
[14] = target: T5, Beta-galactosidase; assay: detection-enzyme interference by beta-gal modulators – biochemical, E. coli enzyme, set 3, artefact control for CCR6 antagonist project, dose response (AID 504712); type: functional
[15] = Counterscreen for AddAB inhibitors: absorbance-based bacterial cell-based high throughput dose response assay for inhibitors of bacterial viability. [Related pubchem assays (depositor defined):AID435030, AID449728, AID449731, AID488942, AID488955, AID488956]; type: functional
[16] = tested on: HEK293; assay: EBV LMP1 TES2 canonical NF-kB signalling blockers – cell-based, HEK293, luciferase, cherry-pick, dose response (AID 588343); type: functional; details: Homo sapiens
[17] = target: T6, Exodeoxyribonuclease V (Escherichia coli (strain K12), UniProt P04993+P07648+P08394); assay: RecBCD inhibition via phage-restricted bacterial growth – absorbance, V66 E. coli, mutant T4 phage, counter-screen for AddAB inhibitor project, dose response (AID 492957); type: functional, cell-based, Escherichia coli str. K-12 substr. MG1655
T6 sequence (P04993 whole entry): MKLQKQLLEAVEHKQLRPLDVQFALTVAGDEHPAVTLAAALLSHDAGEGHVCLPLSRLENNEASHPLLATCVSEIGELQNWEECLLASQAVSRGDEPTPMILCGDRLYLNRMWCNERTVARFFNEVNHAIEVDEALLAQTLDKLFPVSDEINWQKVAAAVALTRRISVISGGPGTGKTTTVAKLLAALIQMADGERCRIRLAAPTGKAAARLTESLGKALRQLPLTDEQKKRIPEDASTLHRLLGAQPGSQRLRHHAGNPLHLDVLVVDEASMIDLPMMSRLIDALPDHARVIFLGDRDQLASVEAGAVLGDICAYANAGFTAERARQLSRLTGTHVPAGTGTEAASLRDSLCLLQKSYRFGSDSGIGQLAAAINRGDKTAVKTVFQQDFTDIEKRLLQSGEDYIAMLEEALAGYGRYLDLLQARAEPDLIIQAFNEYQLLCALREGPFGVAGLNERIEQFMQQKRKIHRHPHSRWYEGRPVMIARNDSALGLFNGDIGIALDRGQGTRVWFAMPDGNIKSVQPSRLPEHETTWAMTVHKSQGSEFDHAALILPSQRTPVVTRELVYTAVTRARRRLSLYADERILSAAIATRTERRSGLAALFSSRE
T6 sequence (P07648 whole entry): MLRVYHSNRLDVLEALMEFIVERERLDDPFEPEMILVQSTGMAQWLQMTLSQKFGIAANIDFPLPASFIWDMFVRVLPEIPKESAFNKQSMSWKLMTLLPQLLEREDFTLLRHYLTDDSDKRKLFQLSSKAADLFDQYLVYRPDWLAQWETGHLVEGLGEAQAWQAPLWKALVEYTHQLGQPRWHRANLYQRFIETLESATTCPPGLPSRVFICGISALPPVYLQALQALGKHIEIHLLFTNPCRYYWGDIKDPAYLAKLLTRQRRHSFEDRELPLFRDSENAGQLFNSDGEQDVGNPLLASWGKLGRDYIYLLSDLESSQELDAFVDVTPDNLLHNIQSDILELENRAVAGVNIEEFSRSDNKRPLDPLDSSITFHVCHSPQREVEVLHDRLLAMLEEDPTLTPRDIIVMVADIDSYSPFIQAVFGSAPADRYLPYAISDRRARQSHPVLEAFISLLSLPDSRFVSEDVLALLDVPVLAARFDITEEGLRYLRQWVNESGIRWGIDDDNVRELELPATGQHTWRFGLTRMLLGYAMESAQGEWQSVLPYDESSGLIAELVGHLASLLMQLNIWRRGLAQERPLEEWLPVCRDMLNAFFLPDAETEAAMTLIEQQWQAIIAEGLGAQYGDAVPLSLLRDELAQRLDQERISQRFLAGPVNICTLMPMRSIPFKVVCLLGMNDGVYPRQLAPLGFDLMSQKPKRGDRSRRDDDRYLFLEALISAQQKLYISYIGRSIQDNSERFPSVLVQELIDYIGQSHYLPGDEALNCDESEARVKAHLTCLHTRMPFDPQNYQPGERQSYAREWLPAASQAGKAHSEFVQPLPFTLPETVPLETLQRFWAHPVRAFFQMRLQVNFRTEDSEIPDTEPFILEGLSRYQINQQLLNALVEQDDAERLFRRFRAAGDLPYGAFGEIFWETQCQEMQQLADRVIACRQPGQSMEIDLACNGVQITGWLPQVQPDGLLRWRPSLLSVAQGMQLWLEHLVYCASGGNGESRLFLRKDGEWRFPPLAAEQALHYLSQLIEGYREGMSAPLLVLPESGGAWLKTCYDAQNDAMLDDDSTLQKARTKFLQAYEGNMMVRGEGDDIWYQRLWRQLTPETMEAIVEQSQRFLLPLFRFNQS
T6 sequence (P08394 whole entry): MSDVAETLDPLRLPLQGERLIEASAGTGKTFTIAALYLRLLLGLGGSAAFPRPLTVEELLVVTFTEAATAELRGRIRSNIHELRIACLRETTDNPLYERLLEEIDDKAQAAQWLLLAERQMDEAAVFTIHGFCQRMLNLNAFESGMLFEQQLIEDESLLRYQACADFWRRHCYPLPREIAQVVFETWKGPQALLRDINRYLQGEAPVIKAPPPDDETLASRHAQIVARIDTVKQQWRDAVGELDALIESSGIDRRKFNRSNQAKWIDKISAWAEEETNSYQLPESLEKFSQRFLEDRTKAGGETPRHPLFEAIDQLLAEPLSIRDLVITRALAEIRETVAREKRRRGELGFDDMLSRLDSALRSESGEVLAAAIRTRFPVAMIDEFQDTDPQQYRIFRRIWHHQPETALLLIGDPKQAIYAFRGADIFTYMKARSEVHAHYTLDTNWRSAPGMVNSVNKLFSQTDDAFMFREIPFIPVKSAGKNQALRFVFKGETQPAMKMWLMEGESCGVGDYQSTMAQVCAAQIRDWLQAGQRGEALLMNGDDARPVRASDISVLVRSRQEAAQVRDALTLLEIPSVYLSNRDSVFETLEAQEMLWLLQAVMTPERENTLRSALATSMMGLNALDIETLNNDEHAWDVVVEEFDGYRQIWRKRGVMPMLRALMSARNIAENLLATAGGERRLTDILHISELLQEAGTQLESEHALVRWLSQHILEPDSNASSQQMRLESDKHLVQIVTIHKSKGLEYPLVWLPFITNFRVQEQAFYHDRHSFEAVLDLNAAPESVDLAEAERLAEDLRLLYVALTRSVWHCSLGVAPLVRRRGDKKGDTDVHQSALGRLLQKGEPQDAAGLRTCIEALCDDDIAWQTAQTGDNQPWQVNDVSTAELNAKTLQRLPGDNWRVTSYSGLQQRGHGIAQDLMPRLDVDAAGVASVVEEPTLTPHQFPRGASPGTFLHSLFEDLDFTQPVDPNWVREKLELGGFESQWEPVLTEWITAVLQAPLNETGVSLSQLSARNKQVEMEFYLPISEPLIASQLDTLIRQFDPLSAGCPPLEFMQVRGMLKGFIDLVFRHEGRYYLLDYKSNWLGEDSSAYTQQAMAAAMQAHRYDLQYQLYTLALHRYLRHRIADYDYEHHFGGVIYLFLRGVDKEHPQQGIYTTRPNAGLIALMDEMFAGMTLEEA

Sequence of Cytochrome P450 2D6 (P10635 whole entry): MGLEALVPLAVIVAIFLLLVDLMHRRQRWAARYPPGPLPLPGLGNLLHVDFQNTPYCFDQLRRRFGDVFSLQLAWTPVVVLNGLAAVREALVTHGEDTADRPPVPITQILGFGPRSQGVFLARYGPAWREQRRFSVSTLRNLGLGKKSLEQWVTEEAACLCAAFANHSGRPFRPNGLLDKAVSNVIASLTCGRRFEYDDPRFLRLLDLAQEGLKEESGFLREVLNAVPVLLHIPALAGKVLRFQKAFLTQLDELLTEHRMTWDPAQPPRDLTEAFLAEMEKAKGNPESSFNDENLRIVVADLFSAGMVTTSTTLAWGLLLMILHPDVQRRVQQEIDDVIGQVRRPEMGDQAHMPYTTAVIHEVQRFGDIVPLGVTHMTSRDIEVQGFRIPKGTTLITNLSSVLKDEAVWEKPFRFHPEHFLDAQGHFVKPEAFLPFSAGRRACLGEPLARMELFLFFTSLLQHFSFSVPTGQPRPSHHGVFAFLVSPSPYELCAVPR

AC50 [1]: 25.1 µM (inconclusive)
IC50 [2]: > 50 µM (inactive)
Structure (SMILES): CN(C)S(=O)(=O)Oc1ccsc1C(=O)Nc1cccc(Cl)c1

Structure (SMILES): CC(C)n1c(=O)[nH][nH]c1=S
IC50 [3]: > 66.2 µM (inactive)
IC50 [4]: > 49.8 µM (inactive)
IC50 [5]: 7.04 µM (active)
IC50 [6]: 34.4 µM (inactive)

IC50 [2]: > 50 µM (inactive)
IC50 [7]: 0.719 µM (not active)
Structure (SMILES): Cc1ccsc1C(=O)NCCC(c1ccccc1)c1ccccc1

IC50 [8]: 35 µM (active)
Structure (SMILES): COc1ccc(-c2nc3cc([N+](=O)[O-])ccc3[nH]2)cc1

IC50 [2]: > 50 µM (inactive)
Structure (SMILES): COc1ccc(C2C(C(=O)Nc3ccccc3OC)=C(C)Nc3ncnn32)cc1 (configuration not stated)

Structure (SMILES): N=C1SCC(=O)N1c1ncc(Cc2ccc(F)cc2)s1
IC50 [9]: 7.35 µM (active)
EC50 [10]: > 31.5 µM (inactive)
EC50 [11]: 0.949 µM (active)
IC50 [12]: > 32 µM
EC50 [13]: 2.21 µM (active)
IC50 [14]: > 66.6 µM (inactive)

IC50 [2]: > 50 µM (inactive)
Structure (SMILES): Cc1cc(C)c(C#N)c(SCc2ccc([N+](=O)[O-])cc2)n1

Structure (SMILES): COc1ccc(CNC(=O)COC(=O)[C@H](Cc2c[nH]c3ccccc23)NC(=O)c2cccs2)cc1
IC50 [3]: > 66.2 µM (inactive)
IC50 [4]: 12.8 µM (inactive)
IC50 [5]: 26.9 µM (inactive)
IC50 [6]: 13.1 µM (inactive)

Structure (SMILES): NC(=S)N/N=C/c1ncc(C(F)(F)F)cc1Cl
IC50 [15]: > 119 µM (inactive)
IC50 [9]: 22.2 µM (inactive)
EC50 [10]: > 31.5 µM (inactive)
AC50 [16]: 10.2 µM (active)
IC50 [17]: > 119 µM (inactive)
IC50 [12]: > 32 µM
